Assay results reported in PubChem BioAssay AID351 (ChemBlock, 2006).
Square brackets hold non-standard residues; d marks the D form. Peptide text beside a SMILES is read from it. * marks the point of attachment. ξ: configuration not given here. X1 = COC1=CC(=O)N(C(=O)C(O*)C(C)C)C1Cc1ccccc1; ξNMe2Val = CC(C)C(C(=O)*)N(C)C; NMeV = CN[CH](C(=O)O)C(C)C

The compounds below were run on sea urchin embryo, cleavage alteration, microscopy (assay: sea urchin embryo cleavage alteration, tubulin destabilizer project, whole organism, microscopy (AID 351)).

Structure (SMILES) | threshold concentration [nM]
COc1ccc(-c2nnc(-c3ccc(OC)c(OC)c3)o2)cc1OC | 500
Cc1ccc(Nc2nc(-c3c(C)nc4sccn34)cs2)cc1 | 5
c1cncc(CNc2ccccc2-c2nnc(Nc3ccc4c(c3)OCO4)o2)c1 | 1
c1ccc(-c2nnc(Nc3ccc4c(c3)OCO4)o2)c(NCc2ccncc2)c1 | 0.5
Nc1c(C(=O)c2ccccc2)sc2nc3c(cc12)CCCC3 | 20
O=C(Nc1ccncc1)C(=O)c1cn(Cc2ccc(Cl)cc2)c2ccccc12 | 10
COC1=CC(=O)N(C(=O)C(OC(=O)C2CCCN2C(=O)C2CCCN2C(=O)C(C(C)C)N(C)C(=O)C(NC(=O)C(C(C)C)N(C)C)C(C)C)C(C)C)C1Cc1ccccc1 (stereo not drawn) (ξNMe2Val-V[NMeV]PP-X1; configuration not given here) | 5
COc1cccc(NC(=O)C(=O)c2cn(Cc3ccc(Cl)cc3)c3ccccc23)c1 | 4000
O=C(Nc1ccc2c(c1)OCCO2)C(=O)c1c[nH]c2ccccc12 | 2
Cc1nc2sccn2c1-c1csc(Nc2ccccc2Cl)n1 | 200
COc1ccc(-c2nc3sc4c(c3c(=O)[nH]2)CCCC4)c2ccccc12 | 50
Nc1ccccc1-c1nnc(Nc2ccc3c(c2)OCCO3)o1 | 1
c1ccc(-c2nnc(Nc3ccc4c(c3)OCCO4)o2)c(NCc2ccns2)c1 | 2000
COc1cc2c(cc1O)CCC1C2CCC2(C)C(O)CCC12 (stereo not drawn) | 200
Nc1cn[nH]c1-c1nc(-c2cccc(F)c2)n[nH]1 | 500
COc1ccc(-c2c(-c3ccccc3)noc2N)cc1OC | 500
COc1ccc(C2=N[C@H](c3ccc(OC)cc3)[C@H](c3ccc(OC)cc3)N2)cc1 | 500
CCOc1ccc(Nc2nc(-c3c(C)nc4ncccn34)cs2)cc1 | 5
